Here are results for 6 compounds from BindingDB's records for PubMed 7996470 (University of Michigan, 1994).

Assay [1] concerns the target T1, Alpha-2C adrenergic receptor (Homo sapiens, UniProt P18825).
T1 sequence (P18825 whole entry): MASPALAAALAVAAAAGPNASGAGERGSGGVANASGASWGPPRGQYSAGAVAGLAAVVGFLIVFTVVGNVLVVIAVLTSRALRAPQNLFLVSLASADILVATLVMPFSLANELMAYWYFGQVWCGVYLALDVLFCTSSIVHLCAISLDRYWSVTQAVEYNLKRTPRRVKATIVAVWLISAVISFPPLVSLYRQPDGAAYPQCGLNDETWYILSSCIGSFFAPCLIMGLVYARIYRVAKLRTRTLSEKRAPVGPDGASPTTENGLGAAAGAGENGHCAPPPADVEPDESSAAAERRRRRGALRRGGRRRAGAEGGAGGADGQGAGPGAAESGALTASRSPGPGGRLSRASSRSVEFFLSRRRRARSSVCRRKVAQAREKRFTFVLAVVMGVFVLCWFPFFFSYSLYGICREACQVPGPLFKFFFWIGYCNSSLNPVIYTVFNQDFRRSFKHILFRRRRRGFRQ

Assay [2] has as its target T2, Alpha-2A adrenergic receptor (Homo sapiens, UniProt P08913).
T2 sequence (P08913 whole entry): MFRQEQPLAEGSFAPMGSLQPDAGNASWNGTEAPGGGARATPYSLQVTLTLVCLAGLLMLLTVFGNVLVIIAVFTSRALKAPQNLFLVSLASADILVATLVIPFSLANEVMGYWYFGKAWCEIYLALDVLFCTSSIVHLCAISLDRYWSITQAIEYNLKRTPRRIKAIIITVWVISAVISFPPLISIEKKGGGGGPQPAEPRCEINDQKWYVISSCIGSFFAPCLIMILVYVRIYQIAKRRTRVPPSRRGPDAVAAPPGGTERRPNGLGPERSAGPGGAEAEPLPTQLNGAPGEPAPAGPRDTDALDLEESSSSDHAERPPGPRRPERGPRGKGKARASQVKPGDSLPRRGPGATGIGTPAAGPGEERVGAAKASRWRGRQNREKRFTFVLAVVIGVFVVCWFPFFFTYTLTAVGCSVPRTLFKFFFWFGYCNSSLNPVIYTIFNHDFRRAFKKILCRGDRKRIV

The structures appear in SMILES notation.

Turning to `COc1cc(N)c(Cl)cc1C(=O)NC1CC2CCC(C1)N2C` (centres undefined) [4-amino-5-chloro-2-methoxy-N-(8-methyl-8-azabicyclo[3.2.1]octan-3-yl)benzamide], affinity in assay [1] was put at a Ki of 150 nM. This counts as sub-micromolar.

As for `O=C1NCN(c2ccccc2)C12CCN(CC1COc3ccccc3O1)CC2` (centres undefined) [8-(2,3-Dihydro-benzo[1,4]dioxin-2-ylmethyl)-1-phenyl-1,3,8-triaza-spiro[4.5]decan-4-one], the Ki (usually a dissociation constant, usually derived from enzyme kinetics or from competition with a known ligand) in assay [2] was 54.3 nM; in assay [1], 1.04 nM.

`CC1c2ccccc2CN1CC1=NCCN1` (centres undefined) [NSC_121850] registered a Ki in assay [2] of 5.68 nM.

In the case of `COC1(C2=NCCN2)COc2ccccc2O1` (centres undefined) [RX821002], the Ki was found to be 0.62 nM in assay [2] and 1.78 nM in assay [1].

In turn, `COc1ccccc1N1CCN(CCC2C(=O)c3ccccc3C(C)(C)C2=O)CC1` (centres undefined) [NSC_122211] returned a Ki in assay [1] of 31.8 nM.

Turning to `COc1cccc(OC)c1OCCNCC1Oc2ccccc2OC1c1ccccc1` (centres undefined) [NSC_185453], the figures for the Ki in assay [2] and in assay [1] were 14.6 nM and 3.18 nM, respectively.
